Key:
Type in all cases: in vivo
corn (Zea mays) = assay: Test A pre-/postemergence: corn
In short: (§1)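 Injury is scored visually on a scale where 0 means no effect and 100 complete control, comparing treated with untreated plants after approximately ten greenhouse days. Both preemergence and postemergence applications are made at the same time.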

[1] = tested on: lambsquarters (Chenopodium album); assay: Test C pre-/postemergence: lambsquarters
In short: (§2)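 Preemergence on seeds in loam/sand, postemergence on 2–18 cm (1–4-leaf) plants in peat-based medium; compounds in non-phytotoxic solvent with surfactant. After 13–15 days in greenhouse, visual rating versus controls, 0 (no effect) to 100 (complete control).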

[2] = tested on: foxtail, giant (giant foxtail, Setaria faberii); assay: Test C pre-/postemergence: foxtail, giant
In short: as §2

[3] = tested on: wheat (Triticum aestivum); assay: Test A pre-/postemergence: wheat
In short: as §1

[4] = tested on: nutsedge, yellow (yellow nutsedge, Cyperus esculentus); assay: Test C pre-/postemergence: nutsedge, yellow
In short: as §2

[5] = tested on: crabgrass, large (large crabgrass, Digitaria sanguinalis); assay: Test A pre-/postemergence: crabgrass, large
In short: as §1

[6] = tested on: pigweed (Amaranthus retroflexus); assay: Test A pre-/postemergence: pigweed
In short: as §1

[7] = tested on: ryegrass, Italian (Italian ryegrass, Lolium multiflorum); assay: Test C pre-/postemergence: ryegrass, Italian
In short: as §2

[8] = tested on: barnyardgrass (Echinochloa crus-galli); assay: Test A pre-/postemergence: barnyardgrass
In short: as §1

soybean (Glycine max) = assay: Test C pre-/postemergence: soybean
In short: as §2

[9] = tested on: winter wheat (Triticum aestivum); assay: Test C pre-/postemergence: winter wheat
In short: as §2

[10] = Postemergence, 125 g ai/ha, 0 to 100 scale, 0 is no effect, 100 is complete control
[11] = Postemergence, 500 g ai/ha, 0 to 100 scale, 0 is no effect, 100 is complete control
[12] = Preemergence, 125 g ai/ha, 0 to 100 scale where 0 is no effect and 100 is complete control
[13] = Preemergence, 500 g ai/ha, 0 to 100 scale (0 no effect, 100 complete control)
[14] = Postemergence, 31 g ai/ha, scale 0 to 100 (0 no effect, 100 complete control)
[15] = Postemergence, 62 g ai/ha, scale 0 to 100 (0 no effect, 100 complete control)
[16] = Postemergence, 125 g ai/ha, scale 0 to 100, 0 no effect, 100 complete control
[17] = Postemergence, 250 g ai/ha, scale 0 to 100 (0 no effect, 100 complete control)
[18] = Preemergence, 31 g ai/ha, scale 0 (no effect) to 100 (complete control)
[19] = Preemergence, 62 g ai/ha, scale of 0 to 100, 0 is no effect, 100 is complete control
[20] = Preemergence, 125 g ai/ha, scale 0 to 100, 0 no effect, 100 complete control
[21] = Preemergence, 250 g ai/ha, scale 0 to 100, 0 no effect, 100 complete control

For CCCc1nn(-c2ccc(C(F)(F)F)c(F)c2)nc1Oc1ccnc(C(F)(F)F)c1 [Compound 185], which “Plant response rating, Corn” value (corn (Zea mays); [10]) is on record?
Its value is 20.

And the “Corn plant response rating” value (corn (Zea mays); [11])?
The value was 50.

And the “Plant response rating, Corn” value (corn (Zea mays); [12])?
The value was 10.

And the “Plant response rating, Corn” value (corn (Zea mays); [13])?
The value was 30.

And the “Plant response rating, Lambsquarters” value [1, 14]?
Its value is 80.

What about the “Plant response rating, Lambsquarters” value [1, 15] of the same molecule?
Its value is 80.

What about the “Plant response rating, Lambsquarters” value [1, 16] of the same molecule?
Its value is 85.

And the “Plant response rating, Lambsquarters” value [1, 17]?
The value was 95.

What about the “Plant response rating, Lambsquarters” value [1, 18] of the same molecule?
Its value is 100.

What about the “Plant response rating, Lambsquarters” value [1, 19] of the same molecule?
The value was 100.

And the “Plant response rating, Lambsquarters” value [1, 20]?
The value was 100.

And the “Plant response rating, Lambsquarters” value [1, 21]?
The value was 100.

What about the “Plant response rating, Foxtail, Giant” value [2, 14] of the same molecule?
Its value is 40.

What about the “Plant response rating, Foxtail, Giant” value [2, 15] of the same molecule?
Its value is 80.

What about the “Plant response rating, Foxtail, Giant” value [2, 16] of the same molecule?
Its value is 90.

What about the “Plant response rating, Foxtail, Giant” value ([2]; Postemergence, 250 g ai/ha, scale 0 to 100) of the same molecule?
The value was 98.

What about the “Plant response rating, Foxtail, Giant” value [2, 18] of the same molecule?
The value was 100.

And the “Plant response rating, Foxtail, Giant” value [2, 19]?
The value was 100.

What about the “Plant response rating, Foxtail, Giant” value [2, 20] of the same molecule?
The value was 100.

What about the “Plant response rating, Foxtail, Giant” value [2, 21] of the same molecule?
The value was 100.

And the “Plant response rating, Wheat” value [3, 10]?
The value was 20.

And the “Wheat plant response rating” value [3, 11]?
The value was 40.

And the “Plant response rating, Wheat” value [3, 12]?
The value was 30.

What about the “Plant response rating, Wheat” value [3, 13] of the same molecule?
Its value is 50.

And the “Plant response rating, Nutsedge, Yellow” value [4, 14]?
The value was 10.

And the “Plant response rating, Nutsedge, Yellow” value [4, 15]?
Its value is 10.

And the “Plant response rating, Nutsedge, Yellow” value [4, 16]?
Its value is 10.

And the “Plant response rating, Nutsedge, Yellow” value [4, 17]?
The value was 15.

And the “Plant response rating, Nutsedge, Yellow” value [4, 18]?
The value was 0.

What about the “Plant response rating, Nutsedge, Yellow” value [4, 19] of the same molecule?
Its value is 0.

What about the “Plant response rating, Nutsedge, Yellow” value [4, 20] of the same molecule?
Its value is 0.

And the “Plant response rating, Nutsedge, Yellow” value [4, 21]?
The value was 5.

What about the “Plant response rating, Crabgrass, Large” value [5, 10] of the same molecule?
The value was 90.

And the “Crabgrass, Large plant response rating” value [5, 11]?
The value was 90.

And the “Plant response rating, Crabgrass, Large” value [5, 12]?
The value was 100.

And the “Plant response rating, Crabgrass, Large” value [5, 13]?
Its value is 100.

And the “Plant response rating, Pigweed” value [6, 10]?
Its value is 100.

What about the “Pigweed plant response rating” value [6, 11] of the same molecule?
Its value is 100.

And the “Plant response rating, Pigweed” value [6, 12]?
The value was 100.

And the “Plant response rating, Pigweed” value [6, 13]?
Its value is 100.

And the “Plant response rating, Ryegrass, Italian” value [7, 14]?
The value was 10.

And the “Plant response rating, Ryegrass, Italian” value [7, 15]?
The value was 10.

What about the “Plant response rating, Ryegrass, Italian” value [7, 16] of the same molecule?
Its value is 25.

What about the “Plant response rating, Ryegrass, Italian” value [7, 17] of the same molecule?
Its value is 35.

And the “Plant response rating, Ryegrass, Italian” value [7, 18]?
Its value is 90.

And the “Plant response rating, Ryegrass, Italian” value [7, 19]?
The value was 100.

And the “Plant response rating, Ryegrass, Italian” value [7, 20]?
The value was 100.

And the “Plant response rating, Ryegrass, Italian” value [7, 21]?
The value was 100.

What about the “Plant response rating, Barnyardgrass” value [8, 10] of the same molecule?
Its value is 70.

What about the “Barnyardgrass plant response rating” value [8, 11] of the same molecule?
The value was 90.

And the “Plant response rating, Barnyardgrass” value [8, 12]?
Its value is 100.

What about the “Plant response rating, Barnyardgrass” value [8, 13] of the same molecule?
Its value is 100.

What about the “Plant response rating, Soybean” value (soybean (Glycine max); [14]) of the same molecule?
The value was 40.

What about the “Plant response rating, Soybean” value (soybean (Glycine max); [15]) of the same molecule?
The value was 45.

And the “Plant response rating, Soybean” value (soybean (Glycine max); [16])?
Its value is 45.

What about the “Plant response rating, Soybean” value (soybean (Glycine max); [17]) of the same molecule?
Its value is 55.

And the “Plant response rating, Soybean” value (soybean (Glycine max); [18])?
The value was 5.

What about the “Plant response rating, Soybean” value (soybean (Glycine max); [19]) of the same molecule?
Its value is 10.

What about the “Plant response rating, Soybean” value (soybean (Glycine max); [20]) of the same molecule?
Its value is 40.

What about the “Plant response rating, Soybean” value (soybean (Glycine max); [21]) of the same molecule?
Its value is 40.

And the “Plant response rating, Wheat” value [9, 14]?
The value was 5.

What about the “Plant response rating, Wheat” value [9, 15] of the same molecule?
Its value is 15.

What about the “Plant response rating, Wheat” value [9, 16] of the same molecule?
The value was 15.

What about the “Plant response rating, Wheat” value [9, 17] of the same molecule?
Its value is 20.

And the “Plant response rating, Wheat” value [9, 18]?
Its value is 10.

And the “Plant response rating, Wheat” value [9, 19]?
Its value is 40.

What about the “Plant response rating, Wheat” value [9, 20] of the same molecule?
The value was 40.

And the “Plant response rating, Wheat” value [9, 21]?
Its value is 55.

Source: patent publication US9302999B2, “Substituted triazoles as herbicides” (E. I. DU PONT DE NEMOURS AND COMPANY, priority 2012, dated 2016)
